Experiments:
Type in all cases: cell-based
EGFR = EGFR (Homo sapiens, UniProt P00533); test: EGFR activity measurement biosensor system (EGFP-SH2 fluorescence); settings: 100 μM; cells cultured 24 hours in serum-free medium; compared to DMSO control
Method: In addition, by using the feature that, when the activities of the EGFR continue to be maintained, the EGFR is internalized into the cell, the cell of the biosensor system that may measure the activities of the EGFR was used in the present experimentation (see Korean Laid-open Patent Publication No. 2019-0014340).
After culturing the cells in a serum-free medium for 24 hours, the cells were treated with Isoprocurcumenol.

c-jun = c-jun gene expression by real-time quantitative PCR in HaCaT cells; settings: 10 μM, 1 hour, serum-free medium
From the text: (§1) Signaling by an EGFR induces the expression of genes important for cell growth and survival through important signaling mediator proteins such as ERK and AKT. The egr1, c-myc, c-jun and c-fos genes are regulated by the EGFR and are well known as genes that promote cell growth and survival.
(§2) Specifically, Tri-reagent was used for mRNA extraction, cDNA was created by a reverse transcription polymerase chain reaction (RT-PCR) using a poly-A primer and a reverse transcriptase, and real-time quantitative PCR was used to measure the amount of each mRNA. The amount of each mRNA was corrected with the amount of β-actin, which is a constitutive gene.

HaCaT cells [1] = test: Wound healing assay; settings: 1 μM
Method: The cell growth promoting effect of Isoprocurcumenol was confirmed through wound healing assay. Specifically, after fully culturing HaCaT cells in a 12-well plate, cells on a certain area were scraped off using a yellow tip to form a wound area, changed to a serum-free medium, and treated with 1 μM of Isoprocurcumenol.

HaCaT cells [2] = test: MTT cytotoxicity assay in HaCaT keratinocytes
Method: The cytotoxicity of Isoprocurcumenol was measured using HaCaT cells as keratinocytes.
When cells are treated with MTT tetrazolium which is a yellow water-soluble substrate, such a substrate is reduced to MTT formazan by mitochondrial enzymes, and the color changes to blue-purple. That is, since the blue-violet color appears darker as the number of living cells increases, the blue-violet absorbance at a wavelength of 540 nm reflects the concentration of living cells.
Specifically, after culturing cells to fill each well of a 96-well plate, the cells were treated with Isoprocurcumenol at concentrations of 0, 10, 25, 50 and 100 μM, and cultured for 24 hours and 48 hours in a 5% CO2 incubator at 37° C. Thereafter, cell viability was measured using MTT reagent. A control group not treated with Isoprocurcumenol (0 μM) was treated with the same amount of the solvent DMSO.

c-myc = c-myc gene expression by real-time quantitative PCR in HaCaT cells; settings: 10 μM, 1 hour, serum-free medium
From the text: as §1, §2

c-fos = c-fos gene expression by real-time quantitative PCR in HaCaT cells; settings: 10 μM, 1 hour, serum-free medium
From the text: as §1, §2

ERK = ERK activation (phosphorylation) by Western blotting in HaCaT cells; settings: 10 μM
Method: (§3) It is well known that the activities of extracellular signal-regulated kinase (ERK) and protein kinase B (AKT) transmit signals necessary for cell growth and survival by the activities of an EGFR. In addition, in Experimental Example 1, it was observed that Isoprocurcumenol generated signals due to activation of the EGFR in the cells of the biosense system for measuring the activities of the EGFR. Accordingly, it was measured whether the activities of the EGFR were induced by Isoprocurcumenol to the activities of the ERK and AKT.
(§4) Specifically, HaCaT cells were cultured in a serum-free medium, treated with 10 μM of Isoprocurcumenol for 10 minutes, 30 minutes and 60 minutes, respectively, and, thereafter, phosphorylated and activated ERK and AKT were analyzed by Western blotting. As antibodies, a phosphorylation antibody as a marker of activated ERK and AKT, and a general antibody for measuring all thereof were used, respectively.

HaCaT cells [3] = test: CCK-8 assay of growth and proliferation of keratinocytes; settings: 24 hours, serum-free medium, p<0.05
Method: Cell counting kit-8 (CCK-8) is a water-soluble tetrazolium salt reagent called WST-8 and forms orange-colored water-soluble Formazan by dehydrogenase in the mitochondria of living cells.
Specifically, after culturing 1×10^4 HaCaT cells in a 96-well plate for 24 hours, the cells were changed to a serum-free medium to remove the growth factors contained in the medium, and treated with Isoprocurcumenol at the concentrations of 1 nM, 10 nM, 100 nM, 1 μM and 10 μM. […] After cultured for 24 hours, the cells were treated with CCK8, and the cell growth was analyzed by measuring absorbance at 450 nm.

egr1 = egr1 gene expression by real-time quantitative PCR in HaCaT cells; settings: 10 μM, 1 hour, serum-free medium
From the text: as §1, §2

HaCaT cells [4] = test: Resistance to UVB-induced cell damage (CCK-8 viability); settings: 1 μM, UVB 500 mJ/cm2, serum-free medium, negative control about 40%
Method: Among the ultraviolet wavelengths, UVB wavelengths corresponding to 280 to 315 nm penetrate the epidermal layer where many keratinocytes exist to cause cell damage.
The solvent DMSO was used as a negative control group, and the cell viability was measured using the CCK-8 method used in Experimental Example 6.

AKT = AKT activation (phosphorylation) by Western blotting in HaCaT cells; settings: 10 μM
Method: as §3, §4

Sequence of EGFR (P00533 25-1210, species assumed): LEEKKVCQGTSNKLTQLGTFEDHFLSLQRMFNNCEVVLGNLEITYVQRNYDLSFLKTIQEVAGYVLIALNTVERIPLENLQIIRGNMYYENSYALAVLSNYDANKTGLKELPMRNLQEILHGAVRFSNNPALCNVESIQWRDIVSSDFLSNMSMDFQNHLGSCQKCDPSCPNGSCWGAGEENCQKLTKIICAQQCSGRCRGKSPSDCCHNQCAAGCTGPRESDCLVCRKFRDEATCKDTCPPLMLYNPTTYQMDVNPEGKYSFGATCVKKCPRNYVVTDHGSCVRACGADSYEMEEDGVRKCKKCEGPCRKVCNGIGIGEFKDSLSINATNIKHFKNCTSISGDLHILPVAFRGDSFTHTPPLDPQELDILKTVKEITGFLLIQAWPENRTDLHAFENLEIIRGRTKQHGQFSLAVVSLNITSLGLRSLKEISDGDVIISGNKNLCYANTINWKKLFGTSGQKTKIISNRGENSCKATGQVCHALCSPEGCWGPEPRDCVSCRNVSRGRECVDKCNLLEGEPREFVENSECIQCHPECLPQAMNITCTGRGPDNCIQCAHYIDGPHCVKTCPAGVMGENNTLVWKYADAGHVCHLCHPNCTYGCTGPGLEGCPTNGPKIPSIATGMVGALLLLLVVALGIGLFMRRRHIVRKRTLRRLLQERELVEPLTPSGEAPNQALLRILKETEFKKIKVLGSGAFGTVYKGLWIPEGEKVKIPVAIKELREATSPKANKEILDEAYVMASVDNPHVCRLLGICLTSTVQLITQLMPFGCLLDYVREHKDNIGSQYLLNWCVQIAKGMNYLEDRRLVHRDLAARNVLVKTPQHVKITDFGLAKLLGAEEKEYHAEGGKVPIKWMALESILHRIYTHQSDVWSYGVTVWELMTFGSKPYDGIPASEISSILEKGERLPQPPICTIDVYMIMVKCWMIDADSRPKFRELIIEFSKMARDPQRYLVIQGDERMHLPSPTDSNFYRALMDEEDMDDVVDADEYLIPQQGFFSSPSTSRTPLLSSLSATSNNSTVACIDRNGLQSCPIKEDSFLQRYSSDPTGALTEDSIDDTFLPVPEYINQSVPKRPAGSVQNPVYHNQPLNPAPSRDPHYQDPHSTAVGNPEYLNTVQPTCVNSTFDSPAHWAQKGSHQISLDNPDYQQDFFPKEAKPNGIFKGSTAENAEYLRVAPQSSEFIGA

EGFR activation (fluorescence signal of biosensor cells) (EGFR): activated
SMILES: C=C1CC(=O)C(=C(C)C)C[C@H]2[C@H]1CC[C@]2(C)O [Isoprocurcumenol]
c-jun mRNA (corrected with β-actin) (c-jun): increased
filling of wound area vs negative control (HaCaT cells [1]; culture for 6 days, serum-free medium): more quickly filled
difference in wound area vs negative control (HaCaT cells [1]; from the 3rd day, t-test p<0.05): more significant difference
cytotoxicity in keratinocytes (overall) (HaCaT cells [2]; 0-100 μM, 24 hours and 48 hours, MTT): very low
cytotoxicity (difference in cell viability) (HaCaT cells [2]; 100 μM, cultured 48 hours, MTT): 10%
cytotoxicity (HaCaT cells [2]; concentration of 10 μM or less): free of cytotoxicity
c-myc mRNA (corrected with β-actin) (c-myc): increased
c-fos mRNA (corrected with β-actin) (c-fos): increased
time to ERK activation (ERK): ≤ 30 min
induction of ERK activity (ERK; 10 minutes, serum-free medium): sufficiently induced
growth and proliferation of cells vs negative control (HaCaT cells [3]; 10 nM): significantly increased
growth and proliferation of cells vs negative control (HaCaT cells [3]; 100 nM): significantly increased
growth and proliferation of cells vs negative control (HaCaT cells [3]; 1 μM): significantly increased
growth and proliferation of cells vs negative control (HaCaT cells [3]; 10 μM): significantly increased
egr1 mRNA (corrected with β-actin) (egr1): increased
cells survived after UVB (HaCaT cells [4]): about 60%
time to AKT activation (AKT): ≤ 30 min
induction of AKT activity (AKT; 10 minutes, serum-free medium): sufficiently induced

Source: patent US20230320957A1, “COMPOSITION FOR ANTI-AGING OR SKIN REGENERATION COMPRISING ISOPROCURCUMENOL” (POSCO, priority 2020, published 2023)
